Results: publication PMC7525093, “Bis-Quinolinium Cyclophane Blockers of SK Potassium Channels Are Antagonists of M3 Muscarinic Acetylcholine Receptors” (Frontiers in Pharmacology, 2020)
Like-named read-outs stand apart in the source and are kept apart here.

Columns and labels:
[1] = target: SK2; design: method as in Benton D.C. et al., 2013; conditions: 125I-Apamin competition; ref Benton D.C. et al., 2013; read-out: Ki, SK2 channels; cited from earlier work
[2] = test system: SK potassium channels; conditions: ref Campos Rosa et al., 1996; read-out: IC50, block of SK channels; cited from earlier work
[3] = test system: mouse trachea; experiment: Isometric tracheal tension measurement (organ bath)
Description: Mice used in these studies were BALB/C mice from Jackson Labs. All animal procedures were reviewed and approved by the University of Texas Health Science Center at San Antonio Institutional Animal Care and Use Committee. For tracheal constriction studies, animals were deeply anesthetized with isoflurane and then sacrificed by cervical dislocation. Isometric tracheal contraction measurements were performed as previously described ([Semenov et al., 2012]). Trachea were removed and surrounding tissues dissected in ice-cold physiologic saline solution (PSS) consisting of 119 mM NaCl, 4.7 mM KCl, 2.0 mM CaCl2, 1.0 mM KH2PO4, 1.17 mM MgSO4, 18 mM NaHCO3, 0.026 mM EDTA, 11 mM glucose, and 12.5 mM sucrose. Trachea were cut below the pharynx and above the primary bronchus bifurcation. Two metal wires, attached to a force transducer and micrometer (Radnoti, LLC), were threaded into the lumen of the trachea. Trachea were placed into an oxygenated organ bath (95% O2, 5% CO2), at 37°C, pH 7.35 (after bubbling with 95% O2–5% CO2). Tracheal resting tension was readjusted to 1 gram over 1 h and then challenged with 67 mM potassium PSS with NaCl adjusted to 56.7 mM to maintain proper osmolarity (KPS). Trachea were challenged two or more times until reproducible contractile responses were achieved. All subsequent experimental drug responses were normalized to the KPS response. Bladder measurements were conducted in a similar manner as trachea with identical solutions. The bladder was excised and formed into a ring by cutting anterior and posterior portions before mounting on metal wires for force measurements. For the aorta preparation, the ascending thoracic aorta was excised and cut into 2–3 mm sections before mounting on wires for force measurements.

[4] = target: T1, human M3 muscarinic acetylcholine receptor (Homo sapiens, UniProt P20309); experiment: R-CEPIAer ER calcium assay of Gq-coupled receptor activation, M3-transfected CHO-K1 cells; format: cell-based
T1 construct: host or cells: CHO-K1 cells, stably transfected
Description: The binding of antagonists to Gq-coupled receptors was determined by measuring IP3-mediated calcium depletion from the endoplasmic reticulum (ER). This was accomplished using CHO-K1 cells stably transfected with human M3 muscarinic acetylcholine receptor (CEM3000000, cDNA Resource Center, Bloomsburg University) and R-CEPIAer, a low affinity ER-targeted calcium indicator fluorescent protein ([Suzuki et al., 2014]). R-CEPIAer reporting of ER calcium concentration was assessed using 564 nm excitation light (>590 long-pass emission) at 20 second intervals on a Nikon swept-field confocal microscope using slit-scan mode, 2x2 Binning, and 100 millisecond frames. F/Fmax was fluorescence intensity normalized to maximal fluorescence intensity during the experiment. The response of cells to Gq-coupled receptor agonist were measured as the change in F/Fmax (ΔF/Fmax) from preagonist value to fluorescence minimum during agonist application (that occurs by IP3-mediated ER calcium depletion). […] Perfusion of each agonist application was for 2 min, while the antagonist overlapped and preceded the second agonist application by 3 min. […] IC50 was calculated by assaying fractional inhibition using a dose-response of antagonist concentrations (i.e. Figure 1D ). For assays of other receptors such as the M1 and M5 muscarinic receptors, H1 histamine and P2Y1 purinergic receptors, these receptors were transiently co-transfected with the pCMV R-CEPIAer plasmid (a gift from Masamitsu Iino (Addgene plasmid # 58216; http://n2t.net/addgene:58216; RRID : Addgene_58216)) into CHO cells using polyethylenimine [according to previous methods ([Longo et al., 2013])]. IC50 and EC50 values were estimated by fitting the dose-response relationship to a Hill equation.
To obtain a pKB using a Schild analysis ([Arunlakshana and Schild, 1959]), the acetylcholine EC50 was measured in the absence of UCL1684 and EC50′ measured in the presence of increasing concentrations of UCL1684. These values were used to calculate a dose ratio (DR = EC50′/EC50) for each UCL1684 concentration. The log(DR − 1) was plotted vs. log UCL1684 concentrations and fit to a linear equation where the theoretical X-intercept was used to estimate a pKB.

[5] = target: T2, M3 mACHR (Homo sapiens, UniProt P20309); experiment: [3H]-NMS competition binding, M3 mACHR-expressing CHO cell membranes; conditions: 0.9 nM [3H]-NMS
T2 construct: expressed in transfected cells; host or cells: membranes of M3 mACHR-expressing CHO cells
Description: Competition binding assays were done with [^3H]-N-methyl-scopolamine ([3H]-NMS, PerkinElmer) essentially as described ([Steinfeld et al., 2010]) with minor modifications. Membrane homogenates were prepared in HEPES assay buffer (20 mM HEPES, 100 mM NaCl, and 10 mM MgCl, pH 7.4) by trituration on ice through a 26-gauge needle followed by centrifugation at 39,000g in Sorval RC-6+ centrifuge. Membranes were resuspended in assay buffer and protein concentration determined by the method of Bradford using bovine serum albumin as a standard ([Bradford, 1976]). Membranes (25 µg) were incubated along with 0.9 nM ^3H- NMS without or with UCL1684 concentrations (10^-11M to 10^-4M in triplicate) for 120 min at 30°C in 96 multiwell GF/C filter plates (MilliporeSigma) coated with 0.3% polyethyleneimine (Sigma). The assay was terminated by rapid filtration using a MilliporeSigma vacuum manifold followed by three washes with ice-cold wash buffer (20mM HEPES, pH 7.4). Filters were removed and placed in 7 ml scintillation vials containing 5 ml scintillation fluid (National Diagnostics) and radioactivity counted using a Beckman LS-6500 ß-counter. Nonspecific binding was defined by 100 µM atropine. […]

T1 sequence (P20309 whole entry): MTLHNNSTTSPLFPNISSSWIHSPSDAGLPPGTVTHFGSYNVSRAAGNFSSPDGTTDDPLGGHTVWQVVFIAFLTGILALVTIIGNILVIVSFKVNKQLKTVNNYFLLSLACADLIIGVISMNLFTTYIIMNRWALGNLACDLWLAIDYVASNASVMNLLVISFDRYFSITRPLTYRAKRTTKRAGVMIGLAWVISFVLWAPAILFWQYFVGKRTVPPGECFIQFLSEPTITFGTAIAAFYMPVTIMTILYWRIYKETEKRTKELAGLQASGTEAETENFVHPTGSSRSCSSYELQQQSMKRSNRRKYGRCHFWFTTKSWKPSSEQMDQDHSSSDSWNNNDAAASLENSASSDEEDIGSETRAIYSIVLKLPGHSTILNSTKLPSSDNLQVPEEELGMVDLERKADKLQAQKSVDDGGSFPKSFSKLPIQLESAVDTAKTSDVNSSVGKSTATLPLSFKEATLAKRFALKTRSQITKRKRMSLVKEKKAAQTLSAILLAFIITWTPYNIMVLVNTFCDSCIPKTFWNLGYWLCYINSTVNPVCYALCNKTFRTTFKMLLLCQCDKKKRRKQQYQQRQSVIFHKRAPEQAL
T2 sequence (P20309 whole entry): as above

Q: For `c1cc2cc(c1)C[n+]1ccc(c3ccccc31)NCc1ccc(cc1)CNc1cc[n+](c3ccccc13)C2` [UCL 1684, 6,12,19,20,25,26-Hexahydro-5,27:13,18:21,24-trietheno-11,7-metheno-7H-dibenzo [b,n] [1,5,12,16]tetraazacyclotricosine-5,13-diium dibromide], which Ki [1] is on record?
A: The Ki was 1 nM.

Q: What about the IC50 [2] of the same compound?
A: Its IC50 is 3 nM.

Q: And the “Relaxation of precontracted trachea” value [3]?
A: Its value is “near complete relaxation”.

Q: And the “Relaxation response of trachea, single dose” value ([3]; 3.5 μM, 0.5 μM carbachol)?
A: The value was 95.4 ± 2.4.

Q: And the IC50 ([3]; Mus musculus, read-out: IC50, relaxation of carbachol-precontracted trachea)?
A: The IC50 was 430 nM.

Q: What about the “Reduction of carbachol-evoked ASM contractions” value ([3]; carbachol-evoked) of the same compound?
A: Its value is over 90%.

Q: And the “Washout needed to restore tracheal responses to cholinergic agonists” value ([3]; data not shown)?
A: The value was “at least an hour of washout”.

Q: What about the IC50 [4] of the same compound?
A: The IC50 was 1500 nM.

Q: And the “Nature of antagonism at M3 receptors” value [4]?
A: The value was “competitive antagonist”.

Q: What about the “Hill slope of inhibition curve, M3 receptor” value ([4]; 0.5 μM carbachol, Hill equation fit) of the same compound?
A: Its value is 1.8 ± 0.29.

Q: What about the “Fractional inhibition of second carbachol response” value ([4]; 5 μM antagonist, 0.5 μM carbachol, 0 = none, 1 = complete inhibition) of the same compound?
A: The value was 0.99.

Q: And the Schild plot slope ([4]; linear regression of log(DR-1) vs log UCL1684)?
A: Its Schild plot slope is 0.94.

Q: And the Kb ([4]; read-out: Ki / KB from Schild analysis)?
A: Its Kb is 155 nM.

Q: And the Ki ([5]; n=3 separate experiments, read-out: Average Ki, competition binding)?
A: Its Ki is 909 nM.

Q: And the Ki ([5]; single experiment shown, read-out: pKi, representative binding experiment (converted))?
A: Its Ki is 1120 nM.
